Experimental data taken from patent publication US20240180158A1, “COMPOUNDS HAVING SELECTIVE INACTIVATION ACTIVITY” (University of North Carolina at Wilmington, priority 2021, published 2024).
Where a name gives a salt, the structure may show the parent alone. Read-outs that look alike come from different tables or passages of the source.

Legend:
S. aureus = assay: Disk diffusion assay, S. aureus; format: cell-based
Method: (§1) The following disk diffusion assays were performed with example compounds described above to assess the ability of compounds to inhibit growth of microorganism. A compound that inhibits its target enzyme may perform poorly for a number of reasons, including low solubility in water or slow rate of transport across a microbial membrane.

K pneumoniae = assay: Disk diffusion assay, K pneumoniae; format: cell-based
Method: as §1

CalASADH = biological target: T1, CalASADH (Candida albicans, UniProt Q5ALM0); assay: Reversibility of CalASADH inactivation by exogenous thiols; format: biochemical; conditions: incubated 10 min, read-out: residual activity of CalASADH
T1 construct: His tag; made in house
T1 sequence (Q5ALM0 1-365): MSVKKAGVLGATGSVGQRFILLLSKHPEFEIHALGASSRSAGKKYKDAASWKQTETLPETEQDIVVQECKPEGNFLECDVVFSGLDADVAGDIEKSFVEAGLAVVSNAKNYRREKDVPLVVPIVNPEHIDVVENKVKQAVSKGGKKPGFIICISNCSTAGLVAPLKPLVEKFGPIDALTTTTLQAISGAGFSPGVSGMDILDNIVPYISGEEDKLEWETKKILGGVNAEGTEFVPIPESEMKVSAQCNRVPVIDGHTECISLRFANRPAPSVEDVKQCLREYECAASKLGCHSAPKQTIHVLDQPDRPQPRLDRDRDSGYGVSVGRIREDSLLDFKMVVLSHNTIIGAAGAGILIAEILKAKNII
Method: This loss of activity supports the hypothesis that these vinyl sulfones are covalently modifying this enzyme. To determine whether this inactivation can be reversed by the introduction of an exogenous nucleophile a large excess of either cysteine (5 mM) or glutathione (10 mM) was added to the reaction mixture after incubation, and the activity of this inactivated enzyme was then monitored. Samples of CalASADH that had been incubated either with 3 μM 4-(methylvinylsulfonyl)nitrobenzene or with 100 μM 3-(phenylsulfonyl)acrylic acid for 10 min were measured to have from 5 to 10% residual activity. At this point, after either cysteine or glutathione was added to each reaction mixture, the residual enzyme activity was monitored as described above.

[1] = biological target: Vibrio cholera ASADH (V. cholera ASADH), aspartate semialdehyde dehydrogenase; assay: Inactivation of the bacterial ASADH ortholog from Vibrio cholera by vinyl sulfones (comparison with the fungal enzyme); format: biochemical; conditions: FIG. 6, irreversible covalent inactivators
Excerpt: FIG. 6 is a table showing a comparison of the differences in affinities and rates of inactivation of example vinyl sulfones as inactivators of either a bacterial or a fungal ASADH, in accordance with some embodiments of the present technology; and
Enhanced reactivity upon binding to an enzyme target is a desirable property if these vinyl sulfones are to serve as effective antifungal agents. However, increased selectivity in target binding is equally important. […] The ASADH from the […] bacterium Vibrio cholera has >90% overall sequence homology to the C. albicans enzyme, with the exception of a helical domain insert (Arachea et al., 2010), and all of the essential active site functional amino acids are fully conserved between these enzyme forms. Five different vinyl sulfones that span the fungal ASADH potency spectrum were selected and examined as potential inactivators of the bacterial ASADH. […] However, importantly, several of these compounds already show some level of discrimination between the fungal and bacterial ASADHs (Table 3).
Ideally, any antifungal agent should have high specificity, interacting only with its intended target. […] Each of the vinyl sulfones that were examined as inactivators of a fungal ASADH were also found to inactivate the bacterial ASADH ortholog, but several of them do so with lower efficiencies. In particular, the best fungal ASADH inactivators with a polar functional group at the 4-position of the benzyl ring are from 7 to 9-fold less efficient when examined as bacterial ASADH inactivators (See e.g. Table 3). By contrast, the inactivators with this polar group in the 2- or 3-position show no significant differences in reactivity between the fungal and bacterial forms of ASADH. The respective active sites of these two ASADH orthologs are virtually identical. However, a conserved arginine (Arg-18) found in fungal ASADH that is proposed to interact with the 4-nitro or the 4-carboxy groups in these inactivators (FIG. 1) is replaced with either a valine or a threonine in the bacterial ASADH family.
The ASADH from Candida albicans (CalASADH) was purified using an ÄKTA chromatography system as previously described (Arachea et al., 2010), with only minor modifications. […] The enzyme activity was assayed at 25° C. by following the production of NADPH at 340 nm in a SpectraMax 190 plate reader (Molecular Devices). Enzyme inhibitors were evaluated by the same assay in the presence of 120 mM CHES buffer, pH 8.6, with 120 mM KCl, 0.3 mM ASA, 1.5 mM NADP, 20 mM phosphate and varying concentrations of each potential inhibitory compound to be tested. […]

[2] = biological target: T2, Candida albicans ASADH (CalASADH), aspartate semialdehyde dehydrogenase, his-tagged (Candida albicans, UniProt Q5ALM0); assay: Inhibition/time-dependent inactivation of Candida albicans ASADH by vinyl sulfones (purified his-tagged enzyme; NADPH production at 340 nm); format: biochemical; conditions: FIG. 5; pH 8.6, 25° C., 0.3 mM ASA, 1.5 mM NADP, 20 mM phosphate; irreversible covalent inactivators
T2 construct: His tag; made in house
T2 sequence (Q5ALM0 1-365): T1 sequence (Q5ALM0 1-365)
Method: FIG. 5 is a table showing the affinities and the rates of inactivation of example vinyl sulfones as inactivators of a fungal ASADH, in accordance with some embodiments of the present technology;
Their initial inhibition potencies (Ki values) were determined by varying the concentration of each vinyl sulfone in the presence of fixed, non-saturating substrate levels.
Aryl vinyl sulfones can be reasonably potent inhibitors of CalASADH, each inhibitor was then tested to determine if it would function as an enzyme inactivator. […] In most cases the residual enzyme activity, measured following a subsequent 20-fold dilution into an assay mixture, decreased to less than 5% of the control rate after incubation with low micromolar levels of these inactivators for 10 min or less. To determine the rate of inactivation the concentration of each vinyl sulfone in this pre-incubation mixture was then varied, centered around their initial measured Ki values. The rate of activity loss observed in each incubation reaction (kobs) was plotted against the inhibitor concentration to determine the inactivation rate (kinact) for that compound and the concentration that produces half-maximal inactivation (Ki). […] The proposed product of the reaction of the active site nucleophile (Cys-156) with this inactivator predicts key interactions of the p-nitro group with Arg-18 and Ser-187, and the protonation of the covalent intermediate by His-256. […] Reaction of this inactivator with the active site nucleophile (Cys-156) predicts keys interactions between its carboxyl group and several backbone amide nitrogens that would shift this adduct further from the active site base (His-256). FIG. 3 illustrates inactivation of Candida albicans ASADH by 4-(methylvinylsulfonyl)nitrobenzene. Plot of the natural log of the ratio of enzyme activity at each time point over the initial enzyme activity, showing the loss of activity as a functional of incubation time for different concentrations of inactivator: 0 μM, 0.75 μM, 1.5 μM, 3 μM, 6 μM. The resulting observed rates at each concentration (kobs) were plotted against the inactivator concentration and a non-linear fit to these replotted data yielded the rate of inactivation (kinact) and the inhibition constant (Ki).
The ASADH from Candida albicans (CalASADH) was purified using an ÄKTA chromatography system as previously described (Arachea et al., 2010), with only minor modifications. A nickel-immobilized metal affinity (IMAC) column was used for the purification of the his-tagged enzyme, with an initial buffer wash containing 20 mM imidazole to remove loosely bound proteins before elution with a 20 to 400 mM imidazole gradient. The enzyme activity was assayed at 25° C. by following the production of NADPH at 340 nm in a SpectraMax 190 plate reader (Molecular Devices). Enzyme inhibitors were evaluated by the same assay in the presence of 120 mM CHES buffer, pH 8.6, with 120 mM KCl, 0.3 mM ASA, 1.5 mM NADP, 20 mM phosphate and varying concentrations of each potential inhibitory compound to be tested. The data were fitted to a competitive inhibitor model which corrects for the levels of substrates present relative to their individual Km values.
To examine the possibility of enzyme inactivation each vinyl sulfone compound was incubated in a defined concentration range with 30 μg/ml of CalASADH, with the inhibitor concentrations grouped around their determined Ki values. Aliquots (10 μl) were removed from the enzyme-inhibitor reaction mixture at various times ranging from 30 secs to 60 min, with most compounds examined from 1 to 10 min at 2 min intervals. Each aliquot was then added to a 190 μl of the same assay mixture as described above for the inhibition studies to measure the residual enzyme activity. […]

C. auris ASADH = C. auris ASADH (Candidozyma auris, UniProt A0A2H0ZN20); assay: C. auris ASADH irreversible inhibition; format: biochemical
Method: These amino acid analogs may be synthesized in accordance with various techniques and schemes provided herein. Two are vinyl sulfones and one is an acrylamide. Accordingly, the core functional group of compounds described herein can be at least one of a vinyl sulfone and/or an acrylamide. The vinyl sulfones were tested against C. auris ASADH as irreversible inhibitors.

C. auris ASADH, sequence (A0A2H0ZN20 entry or part of it): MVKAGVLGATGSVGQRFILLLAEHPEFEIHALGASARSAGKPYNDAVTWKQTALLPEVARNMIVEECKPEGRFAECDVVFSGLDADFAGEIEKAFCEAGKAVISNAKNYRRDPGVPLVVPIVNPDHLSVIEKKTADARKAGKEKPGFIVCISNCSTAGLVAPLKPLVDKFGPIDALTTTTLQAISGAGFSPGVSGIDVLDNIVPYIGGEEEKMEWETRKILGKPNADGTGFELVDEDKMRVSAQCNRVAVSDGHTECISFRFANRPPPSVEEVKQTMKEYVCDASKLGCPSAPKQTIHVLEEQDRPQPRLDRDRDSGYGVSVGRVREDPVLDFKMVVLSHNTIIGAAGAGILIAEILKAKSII

Ki [2] | Compound | further results
 | CS(=O)(=O)/C=C/c1cc(O)ccc1O [2-MSV-dihydroxbenzene, 2-(S-methylsulfonylvinyl)1,4-dihydroxybenzene] | disk diffusion, S. aureus (S. aureus; aromatic compounds): medium; disk diffusion, K pneumoniae (K pneumoniae; aromatic compounds): weak
 | O=C(O)/C=C/S(=O)(=O)c1ccccc1 [3-(phenylsulfonyl)acrylic acid] | remaining activity at 100 µM (CalASADH; 100 μM): 5 to 10%
 | CS(=O)(=O)/C=C/c1ccc([N+](=O)[O-])cc1 [4-(methylvinylsulfonyl)nitrobenzene, 4-(methylsulfonylvinyl)nitrobenzene] | remaining activity at 3 µM (CalASADH; 3 μM): 5 to 10%
2.64 ± 0.22 µM | CS(=O)(=O)/C=C/c1ccccn1 [Compound 3, 2-(methylsulfonylvinyl)pyridine] | 
3.52 ± 0.42 µM | CS(=O)(=O)/C=C/c1ccc(O)c(O)c1 [Compound 4, 4-(methylsulfonylvinyl)-1,2-benzenediol] | 
2.16 ± 0.24 µM | O=S(=O)(/C=C/c1ccncc1)c1ccccc1 [Compound 5, 4-(phenylsulfonylvinyl)pyridine] | 
4.26 ± 0.83 µM | CS(=O)(=O)/C=C/c1ccccc1 [Compound 6, Methylsulfonylvinylbenzene] | 
21.7 ± 8 µM | O=S(=O)(/C=C/c1ccccc1)C(F)(F)F [Compound 7, Trifluoromethylsulfonylvinylbenzene] | 
8.49 ± 0.94 µM | O=S(=O)(/C=C/c1ccccn1)c1ccccc1 [Compound 8, 2-(Phenylsulfonylvinyl)pyridine] | 
5.69 ± 0.78 µM | CS(=O)(=O)/C=C/c1ccncc1 [Compound 9, 4-(methylsulfonylvinyl)pyridine] | 
25.1 ± 6.8 µM | CS(=O)(=O)/C=C/c1cccnc1 [Compound 10, 3-(methylsulfonylvinyl)pyridine] | 
42.2 ± 3 µM | O=S(=O)(/C=C/c1cccnc1)c1ccccc1 [Compound 11, 3-(Phenylsulfonylvinyl)pyridine] | 
36.9 ± 6.2 µM | CS(=O)(=O)/C=C/c1cccc(C(=O)O)c1 [Compound 13, 3-(methylsulfonylvinyl)benzoic acid] | 
67.1 ± 15.8 µM | O=C(O)/C=C/S(=O)(=O)c1ccccc1 [Compound 15, 3-(phenylsulfonyl)acrylic acid] | 
 | CS(=O)(=O)/C=C/C(N)=O [MeSAm, 3-S-Methylsulfonylacrylamide] | disk diffusion, S. aureus (S. aureus; vinyl sulfone carboxamides): strong; disk diffusion, K pneumoniae (K pneumoniae; vinyl sulfone carboxamides): strong
 | NC(=O)/C=C/S(=O)(=O)c1ccccc1 [PhSAm, 3-S-Phenylsulfonylacrylamide] | disk diffusion, S. aureus (S. aureus; vinyl sulfone carboxamides): strong; disk diffusion, K pneumoniae (K pneumoniae; vinyl sulfone carboxamides): strong
 | NC(C/C=C/S(=O)(=O)Cc1ccccc1)C(=O)O (centres unmarked) [S-benzylsulfonylvinylalanine, 3-(benzylsulfonylvinyl)-alanine hydrochloride] | Ki (C. auris ASADH): 0.3 µM
 | CS(=O)(=O)C=CC[C@H](N)C(=O)O [S-methylsulfonylvinylacrylamide, 3-(S-methylsulfonylvinyl)-alanine hydrochloride] | Ki (C. auris ASADH; irreversible inhibitors, read-out: inhibitory constant): 0.1 µM

Compound | Ki [2] | further results
CS(=O)(=O)/C=C/c1ccc(C(=O)O)cc1 [Compound 1, 4-(methylsulfonylvinyl)benzoic acid] | 0.78 ± 0.1 µM | Ki [1]: 4.45 ± 0.25 µM
CS(=O)(=O)/C=C/c1ccc([N+](=O)[O-])cc1 [Compound 2, 4-(methylsulfonylvinyl)nitrobenzene] | 1.02 ± 0.28 µM | Ki [1]: 6.29 ± 0.59 µM
CS(=O)(=O)/C=C/c1cccc([N+](=O)[O-])c1 [Compound 12, 3-(methylsulfonylvinyl)nitrobenzene] | 19.6 ± 1.4 µM | Ki [1]: 10.3 ± 2.3 µM
CS(=O)(=O)/C=C/c1ccccc1[N+](=O)[O-] [Compound 14, 2-(methylsulfonylvinyl)nitrobenzene] | 56.7 ± 2.7 µM | Ki [1]: 2.57 ± 0.23 µM
